Series [1] relates to Staphylococcus aureus. As to the kind of experiment: microbe, parasite or virus in culture. Type of series: functional. Conditions: NCTC 4163, 18 h.
The subject of series [2] is Staphylococcus aureus. The experiment in a line: microbe, parasite or virus in culture. Conditions: ATCC 29213, 18 h. Type of series: functional.
For series [3], the system named is Staphylococcus aureus. As to the kind of experiment: microbe, parasite or virus in culture. Type of series: functional. Conditions: ATCC 6538, 18 h.
Series [4] deals with Staphylococcus epidermidis. As to the kind of experiment: microbe, parasite or virus in culture. In kind it is functional. The conditions noted are these: ATCC 12228, 18 h.
Series [5] deals with Enterococcus hirae. The experiment in a line: microbe, parasite or virus in culture. Conditions: ATCC 10541, 18 h. In kind it is functional.
In series [6] the test system is Escherichia coli. As to the kind of experiment: microbe, parasite or virus in culture. In kind it is functional. Conditions: ATCC 25922, 18 h.
Series [7] relates to Escherichia coli. As to the kind of experiment: microbe, parasite or virus in culture. Type of series: functional. Conditions: NCTC 8196, 18 h.
Series [8] deals with Pseudomonas aeruginosa. As to the kind of experiment: microbe, parasite or virus in culture. Conditions: ATCC 15442, 18 h. Type of series: functional.
Series [9] deals with Pseudomonas aeruginosa. As to the kind of experiment: microbe, parasite or virus in culture. Conditions: ATCC 27853, 18 h. In kind it is functional.
The subject of series [10] is SW480. As to the kind of experiment: Cytotoxicity against human SW480 cells at 60 uM incubated for 72 hrs by LDH release assay (reference value: […]). In kind it is functional. In general terms: LDH leaks from cells whose membrane has failed.
The test system of series [11] is SW480. The experiment in a line: Cytotoxicity against human SW480 cells at 40 uM incubated for 72 hrs by LDH release assay (reference value: […]). Type of series: functional.
Series [12] has as its system SW480. As to the kind of experiment: Cytotoxicity against human SW480 cells at 20 uM incubated for 72 hrs by LDH release assay (reference value: […]). Type of series: functional.
Series [13] relates to SW480. As to the kind of experiment: Cytotoxicity against human SW480 cells at 10 uM incubated for 72 hrs by LDH release assay (reference value: […]). In kind it is functional.
Series [14] deals with SW-620. As to the kind of experiment: Cytotoxicity against human SW620 cells at 60 uM incubated for 72 hrs by LDH release assay (reference value: 4.2 %). Type of series: functional.
Series [15] deals with SW-620. As to the kind of experiment: Cytotoxicity against human SW620 cells at 40 uM incubated for 72 hrs by LDH release assay (reference value: 4.2 %). In kind it is functional.
For series [16], the system named is SW-620. The experiment in a line: Cytotoxicity against human SW620 cells at 20 uM incubated for 72 hrs by LDH release assay (reference value: 4.2 %). Type of series: functional.
The subject of series [17] is SW-620. As to the kind of experiment: Cytotoxicity against human SW620 cells at 10 uM incubated for 72 hrs by LDH release assay (reference value: 4.2 %). In kind it is functional.
For series [18], the system named is PC-3. As to the kind of experiment: Cytotoxicity against human PC3 cells at 60 uM incubated for 72 hrs by LDH release assay (reference value: […]). Type of series: functional.
Series [19] deals with PC-3. As to the kind of experiment: Cytotoxicity against human PC3 cells at 40 uM incubated for 72 hrs by LDH release assay (reference value: […]). In kind it is functional.
Series [20] concerns PC-3. As to the kind of experiment: Cytotoxicity against human PC3 cells at 20 uM incubated for 72 hrs by LDH release assay (reference value: […]). In kind it is functional.
Series [21] concerns PC-3. The experiment in a line: Cytotoxicity against human PC3 cells at 10 uM incubated for 72 hrs by LDH release assay (reference value: […]). In kind it is functional.
The test system of series [22] is PC-3. As to the kind of experiment: Induction of apoptosis in human PC3 cells assessed as viable cells at antiproliferative IC50 incubated for 72 hrs by annexin V FITC and PI staining based flow cytometry (reference value: 95.1 %). Type of series: functional.
In series [23] the test system is PC-3. The experiment in a line: Induction of apoptosis in human PC3 cells assessed as early apoptotic cells at antiproliferative IC50 incubated for 72 hrs by annexin V FITC and PI staining based flow cytometry (reference value: […]). Type of series: functional. On the technique in general: Flow cytometry measures light scatter and fluorescence of single cells or particles in a stream.

In series [24] the test system is PC-3. The experiment in a line: Induction of apoptosis in human PC3 cells assessed as late apoptotic cells at antiproliferative IC50 incubated for 72 hrs by annexin V FITC and PI staining based flow cytometry (reference value: […]). Type of series: functional.
Series [25] relates to PC-3. As to the kind of experiment: Induction of apoptosis in human PC3 cells assessed as necrotic cells at antiproliferative IC50 incubated for 72 hrs by annexin V FITC and PI staining based flow cytometry (reference value: […]). In kind it is functional.
Series [26] concerns SW-620. As to the kind of experiment: Induction of apoptosis in human SW620 cells at antiproliferative IC50 incubated for 72 hrs by annexin V FITC and PI staining based flow cytometry. In kind it is functional.
The subject of series [27] is HaCaT. The experiment in a line: Induction of apoptosis in human HaCaT cells at antiproliferative IC50 incubated for 72 hrs by annexin V FITC and PI staining based flow cytometry. In kind it is cell-based.
The test system of series [28] is SW480. As to the kind of experiment: Reduction of IL-6 level in human SW480 cells at antiproliferative IC50 incubated for 72 hrs by ELISA relative to control. In kind it is functional.
Series [29] deals with SW-620. As to the kind of experiment: Reduction of IL-6 level in human SW620 cells at antiproliferative IC50 incubated for 72 hrs by ELISA relative to control. In kind it is functional. (An ELISA detects its analyte on a solid surface through an enzyme-linked reagent.)
In series [30] the test system is HaCaT. As to the kind of experiment: Reduction of IL-6 level in human HaCaT cells at antiproliferative IC50 incubated for 72 hrs by ELISA relative to control. In kind it is cell-based.
Series [31] deals with SW480. As to the kind of experiment: Antiproliferative activity against human SW480 cells assessed as reduction in cell viability incubated for 72 hrs by MTT assay. In kind it is functional, cell-based. The conditions noted are these: SW480, 72 h.
The test system of series [32] is HaCaT. As to the kind of experiment: Cytotoxicity against human HaCaT cells assessed as reduction in cell viability incubated for 72 hrs by MTT assay. In kind it is cell-based.
Series [33] has as its system PC-3. The experiment in a line: Antitumor activity against human PC3 cells assessed as reduction in IL-6 level at antiproliferative IC50 incubated for 72 hrs by ELISA relative to control. In kind it is functional.

Consider 10 compounds from ChEMBL document CHEMBL4312013 (Eur J Med Chem, 2020).

pIC50: −log10 of the molar value. Converted amounts (≈) assume the structure as drawn. The source made the active and inactive calls. The rule behind the calls is not given here. A value given as a limit tells only on which side of the number the result lay.

The pIC50 is the IC50 on a negative log10 scale, so that one unit is a factor of ten.

For `CC(C)=CCC/C(C)=C/C(=O)O`, the MIC is more than 512 µg/mL in series [1]; more than 512 µg/mL in [2]; more than 512 µg/mL in [3]; 512 µg/mL (≈ 3040 µM) in series [4]; 512 µg/mL (≈ 3040 µM) in series [5]; 512 µg/mL (≈ 3040 µM) in series [6]. The MIC in [7] was more than 512 µg/mL; in series [8] it was 512 µg/mL (≈ 3040 µM); in series [9], 512 µg/mL (≈ 3040 µM).

For the compound `O=C(O)c1cn(C2CC2)c2cc(N3CCNCC3)c(F)cc2c1=O` [CIPROFLOXACIN], the Activity was determined as 15% in series [10]; 14.5% in series [11]; 14.2% in [12]; 12% in series [13]; 9.3% in [14]; 9.1% in series [15]. Also, the Activity was 8.9% in [16]; 8.1% in series [17]; 18% in [18]; 17.5% in series [19]; 16.5% in series [20]; 14% in series [21]. The Activity in series [22] was 59.7%; in [23] it was 5.3%; in series [24] it was 31.1%; in series [25], 3.9%; in series [26], 31.4 - 39.2%; in [27] it was 6.2 to 12%. Besides, the result in [30] was Active. The outcome in series [28] and in series [29] was Active. For the same compound, the MIC turned out to be 0.25 µg/mL (≈ 0.754 µM) in series [1]; 0.5 µg/mL (≈ 1.51 µM) in series [2]; 0.5 µg/mL (≈ 1.51 µM) in [3]; 0.25 µg/mL (≈ 0.754 µM) in [4]; 8 µg/mL (≈ 24.1 µM) in series [5].

Turning to `C/C=C/C(=O)O` [CROTONIC ACID], the MIC in series [1], in series [2], in series [3], in series [4], in [5] and in series [6] was more than 512 µg/mL each time. Further, the MIC in series [7], in series [8] and in series [9] was more than 512 µg/mL throughout.

In the case of `COc1cccc2c1C(=O)c1c(O)c3c(c(O)c1C2=O)C[C@@](O)(C(=O)CO)C[C@@H]3O[C@H]1C[C@H](N)[C@H](O)[C@H](C)O1` [DOXORUBICIN], the pIC50 in series [31] was 6.12; in [32], 6.54. Also, the outcome in [33], in [28] and in [29] was Active. Besides, the outcome in series [30] was Active.

Take `CCCCCCCC/C=C/CCCCCCCC(=O)O` [ELAIDIC ACID]: the MIC in [1], in series [2], in series [3], in [4], in series [5] and in series [6] was 512 µg/mL (≈ 1810 µM) in each case. In addition, the MIC in series [7], in series [8] and in series [9] was 512 µg/mL (≈ 1810 µM) in each case.

For the compound `CCCCCCCC/C=C\CCCCCCCCCCCC(=O)O` [ERUCIC ACID], the MIC in series [1] was more than 512 µg/mL; in series [2], more than 512 µg/mL; in series [3], 128 µg/mL (≈ 378 µM); in [4] it was 256 µg/mL (≈ 756 µM); in series [5], 64 µg/mL (≈ 189 µM); in series [6], more than 512 µg/mL. For the same compound, the MIC in series [7], in series [8] and in series [9] was 512 µg/mL (≈ 1510 µM) in each case.

Take `CC/C=C\C/C=C\C/C=C\CCCCCCCC(=O)O` [LINOLENIC ACID]: the MIC is 128 µg/mL (≈ 460 µM) in [1]; 128 µg/mL (≈ 460 µM) in [2]; 128 µg/mL (≈ 460 µM) in series [3]; 512 µg/mL (≈ 1840 µM) in series [4]; 512 µg/mL (≈ 1840 µM) in series [5]; more than 512 µg/mL in series [6]. Also, the MIC in series [7] was more than 512 µg/mL; in series [8] it was 512 µg/mL (≈ 1840 µM); in series [9], 512 µg/mL (≈ 1840 µM).

Consider `CCCCCCCC/C=C\CCCCCCCC(=O)O` [OLEIC ACID], for which the MIC in series [1] was 256 to 512 µg/mL (≈ 906 to 1810 µM); in series [2] it was 256 to 512 µg/mL (≈ 906 to 1810 µM); in series [3] it was 256 µg/mL (≈ 906 µM); in series [4], 512 µg/mL (≈ 1810 µM); in [5] it was 128 to 256 µg/mL (≈ 453 to 906 µM); in series [6], 512 µg/mL (≈ 1810 µM). The MIC in series [7] was 512 µg/mL (≈ 1810 µM); in series [8], 512 µg/mL (≈ 1810 µM); in series [9], 256 to 512 µg/mL (≈ 906 to 1810 µM).

Consider `CCCCCCCCCCCCCCCC(=O)O` [PALMITIC ACID], for which the MIC in series [1], in series [2], in [3], in [4], in series [5] and in series [6] was 512 µg/mL (≈ 2000 µM) each time. In addition, the MIC in [7], in [8] and in [9] was 512 µg/mL (≈ 2000 µM) throughout.

In the case of `C/C=C/C=C/C(=O)O` [SORBIC ACID], the MIC in [1] was more than 512 µg/mL; in series [2] it was more than 512 µg/mL; in [3] it was more than 512 µg/mL; in series [4], more than 512 µg/mL; in [5] it was 512 µg/mL (≈ 4570 µM); in [6] it was 512 µg/mL (≈ 4570 µM). The MIC is more than 512 µg/mL in series [7], 512 µg/mL (≈ 4570 µM) in series [8] and 512 µg/mL (≈ 4570 µM) in series [9].
